Laboratory results reported in patent US20050130232A1, “Methods of screening for compounds that modulate hormone receptor activity” (Allergan, Inc., priority 2001, published 2005).

What was measured:
[1] = molecular target: T1, RXR-associated protein kinase in Flag-RXR immunocomplexes (Homo sapiens, UniProt P19793); assay: In vitro kinase reaction with [γ-32P]ATP on Flag-RXR immunocomplexes from transfected HEK 293 cells; format: cell-based; settings: transfected HEK 293 cells treated with ligand before anti-Flag immunoprecipitation
T1 construct: expressed in transfected cells; host or cells: HEK 293
T1 sequence (P19793 1-462): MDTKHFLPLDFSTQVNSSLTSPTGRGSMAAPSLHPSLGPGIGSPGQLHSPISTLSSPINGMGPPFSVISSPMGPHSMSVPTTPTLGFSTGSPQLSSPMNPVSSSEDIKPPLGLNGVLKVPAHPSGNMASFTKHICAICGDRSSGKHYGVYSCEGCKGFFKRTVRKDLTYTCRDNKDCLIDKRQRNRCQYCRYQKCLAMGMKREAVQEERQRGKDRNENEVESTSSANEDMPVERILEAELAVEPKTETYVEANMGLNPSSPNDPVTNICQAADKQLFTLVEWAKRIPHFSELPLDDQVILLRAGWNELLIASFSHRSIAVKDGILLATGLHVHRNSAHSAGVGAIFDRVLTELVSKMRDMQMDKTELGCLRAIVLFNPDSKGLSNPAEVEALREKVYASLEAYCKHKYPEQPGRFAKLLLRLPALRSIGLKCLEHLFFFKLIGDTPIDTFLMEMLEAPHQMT
Source text: (§1) Total cell lysates were immunoprecipitated with anti-Flag antibody (M2). Aliquots of the immunocomplexes were used for the in vitro kinase reaction with [γ-^32P]ATP and separated on SDS-PAGE. Phosphorylated proteins were detected by autoradiography (top panel). Additional aliquots of the immunocomplexes were subjected to immunoblotting with polyclonal anti-RXR antisera (D20; bottom panel). (B) Phosphoamino acid analysis. Flag-RXR and the 160-kDa protein were phosphorylated in vitro and separated on SDS-PAGE as described above, then transferred onto PVDF membrane, detected by autoradiography, and cut out for hydrolysis with acid (6 N HCl). The phosphorylated amino acids and standards (P-Ser, P-Thr, and P-Tyr) were separated by thin-layer chromatography. Positions of the standards P-Ser, P-Thr, and P-Tyr were visualized by ninhydrin staining and are indicated by arrows. (C) In vivo metabolic labeling of transfected HEK 293 cells. […] Cells were washed with phosphate-free medium and starved for 90 minutes before incubation with [^32P]orthophosphate for another 4 hours. […] Total cell lysates were immunoprecipitated with anti-Flag antibody (M2) and subjected to separation on SDS-PAGE. Phosphorylated proteins were detected by autoradiography.
(§2) Total cell lysates were subjected to immunoprecipitation, and the in vitro kinase reaction performed as described above.
(§3) Cell lysis, immunoprecipitation with anti-Flag (M2), in vitro kinase assay, and detection of the phosphorylated proteins in the RXRα immunoprecipitated complexes were performed as described above.
(§4) Cell culture and transient transfection was performed as follows. HEK 293 cells were grown in Dulbecco's modified Eagle's medium (DMEM) supplemented with 10% fetal bovine serum (FBS), 100U of penicillin per ml and 10 μg of streptomycion per ml at 37° C. in 5% CO2. For expression of RXR protein, 100-mm dishes of cells were transfected at 50% confluence with 2 μg of plasmid DNA using Lipofectamine (Life Technologies) as specified by the manufacturer. At 32 hours post-transfection, cells were starved by incubating in DMEM medium with 2.5% charcoal-treated fetal bovine serum or 0.1-0.5% calf bovine serum overnight, and then treated with indicated agents. Cells were harvested by aspirating medium, rinsing in phosphate buffered saline (PBS), and extracting into Lysis Buffer (30 mM Tris-HCL, pH 7.4, 0.5% Nonidet P-40, 10% glycerol, 150 mM NaCl, 1 mM EDTA, 40 mM NaF, 1 mM sodium orthovanadate, and 0.5 mM phenylmethylsufonyl fluoride, and 1× protease inhibitors, (Roche Diagnostics) or 1×SDS Sample Buffer.
(§5) Immunoprecipitation was performed essentially as follows. Cells were solubilized in cold Lysis Buffer and subsequently clarified by centrifugation at 20,000 g for 10 minutes at 4° C. Immunoprecipitations were performed at 4° C. by incubating clarified cell extracts with the indicated antibodies (2 μg/ml) and protein A/G-agarose beads (1:30 dilution of a 50% suspension) on a rotating wheel for 4 hours to overnight. Agarose beads were pelleted by low speed centrifugation and washed extensively with ice-cold Lysis Buffer.
(§6) Protein kinase assays were performed as follows. Immunoprecipitated complexes were resuspended in 15 μl of Kinase Assay Buffer (30 mM Tris-HCl, pH 7.4 and 10 mM MgCl2). Kinase reactions were initiated by addition of 2.5 μl of 50 μM [γ-^32P]ATP (10 μCi) to the immune-complexes, followed by incubation at 25° C. with occasional shaking for 20 minutes, and terminated by addition of 6 μl 4×SDS Sample Buffer. After heating at 100° C. for 5 minutes, the reaction mixtures were resolved by 4-12% SDS-PAGE. Incorporation of ^32P into RXR or other proteins was determined by autoradiography.

[2] = test system: RXR-associated protein kinase in Flag-RXR immunocomplexes; assay: as above; format: cell-based, human
Source text: as §1, §2, §3, §4, §5, §6

[3] = molecular target: association between RXRα and PKA (Homo sapiens, UniProt P19793); assay: Co-immunoprecipitation of RXRα and catalytic subunit of PKA; format: cell-based; settings: cells overexpressing PKA catalytic subunit, 10^-7 M
Method: Left panel: Cells were immunoprecipitated with anti-FLAG antibody, and the immunoprecipitates analyzed by SDS-PAGE and blotting with anti-PKA antibody. Right panel: Cells were immunoprecipitated with anti-PKA antibody, and the immunoprecipitates analyzed by SDS-PAGE and blotting with anti-FLAG antibody. […] PKA I and PKC I indicate inhibitors of PKA and PKC, respectively.
Immunoprecipitations with anti-Flag antibody were performed as described above. Immunoprecipitations with anti-PKA antibody (Transduction Laboratories; Lexington, Kentucky) were performed according to manufacturer's protocol. Western blotting with anti-PKA antibody and anti-Flag antibody also were performed according to manufacturer's protocol.

Compound: CC(/C=C/[C@@H]1C[C@]1(C)c1ccc2c(c1)C(C)(C)CCC2(C)C)=C\C(=O)O [AGN194204]
- phosphorylation of RXR and 160 kDa protein in Flag-RXR immunocomplexes [1]: contained a kinase phosphorylated RXR and a 160 kDa protein
- recruitment of kinase activity to the immunocomplex ([2]; AF-2 region deleted from RXRα): kinase activity was not recruited
- recruitment of kinase activity to the immunocomplex ([2]; RXRα deletion mutants containing an intact E region): recruited kinase activity
- amount of protein kinase A associated with RXRα [3]: did not increase the amount of protein kinase A associated with receptor
